Legend:
[1] = system: RUNX1; assay: RUNX1 recruitment to genomic loci; assay type: cell-based; settings: FIG. 11
[2] = system: SET-2 cells; assay: SET-2 differentiation assay; assay type: cell-based; settings: 50 nM, 3 days, flow cytometry
Description: For the SET-2 differentiation assay, cells were plated (6-well) in triplicate at 150,000 cells per ml for 3-days with 50 nM CA, 50 ng ml^−1 PMA (positive control), or vehicle. Cell pellets were collected at 4° C., washed three times with cold PBS, and stained with anti-CD61-PE (ab91128) or anti-CD41-PerCP (ab134373) and analyzed by flow cytometry. For each experiment, n=3 biological replicates with two independent experiments and one shown (FIG. 3).

[3] = system: ruxolitnib persistence cells; assay: Growth inhibition in ruxolitinib persistent cells; assay type: cell-based; settings: FIG. 5 legend; read-out: G150 in ruxolitnib persistence cells
[4] = system: MOLM-14 cells; assay: Screening drug resistant alleles; assay type: cell-based; settings: WT and mutated CDK8 and CDK19
Description: All suspension cells were plated (96-well) in triplicate at 5,000-30,000 cells per well for testing (n=3). Viable cell number was estimated after 3, 7 and 10 days by counting viable cells from one vehicle well, generating a cell dilution series, transferring […] per well in duplicate to a 384-well plate, and performing a linear regression to CellTiter-Glo (Promega) response (SPECTRAmax M3, Molecular Devices). Cells from all wells were also fourfold diluted in media and transferred in duplicate for CellTiter-Glo measurement. On days 3 and 7, an equal volume for all wells was split-back with fresh media and compound, such that the resulting cell density for the vehicle well matched the initial seeding density. For days 7 and 10, estimated cell number represents the split-adjusted theoretical cell number. HCT116 were plated (96-well) in triplicate at 250 cells per well. Cells were incubated in the presence of vehicle, 1 μM paclitaxel, or compound. On day 7, CellTiter-Blue (Promega) response was measured and values were normalized to vehicle (100% growth) and paclitaxel (0% growth). For growth assays with inhibitors, n=3 for each concentration with two independent experiments. […]

[5] = system: MV4;11-mCLP leukemia; assay: MV4;11 xenograft model; assay type: in vivo, mice
Description: The MV4;11 xenograft model was performed as previously described (Etchin, J. et al. Antileukemic activity of nuclear export inhibitors that spare normal hematopoietic cells. Leukemia 27, 66-74 (2013)). Two-million MV4;11-mCLP cells were injected into the tail vein of 7-week-old female non-obese diabetic-severe combined immuno-deficient (NOD-SCID)Il2rg^−/− (NSG) mice (The Jackson Laboratory) and tumour burden was assessed by bioluminescence imaging (BLI) using an IVIS Spectrum system (Caliper Life Sciences). Seven days after injection, leukaemia establishment was documented by BLI and mice were assigned to groups to achieve a similar mean BLI and treated intraperitoneally with vehicle (20% hydroxypropyl-β-cyclodextrin) or CA once daily for 15 days. After 30 days, blood counts were obtained (Hemavet 950 F, Drew Scientific) and spleen, femur and peripheral blood cells were collected and analysed by flow cytometry (LSR Fortessa, BD Biosciences) from three mice per group, having the highest, lowest and median BLI value. […]
(§1) Samples from all organs were then dissected and placed in nine cassettes per mouse. […] Survival was measured as the time from therapy initiation until moribund state. […]
as §1

Cortistatin A
RUNX1 recruitment to loci [1]: recruited
differentiation, megakaryocytic markers CD41 and CD61 [2]: induces differentiation
IC50 [3]: 2 to 10 nM
growth of cells expressing CDK8 W105M or CDK19 W105M [4]: confers Cortistatin A resistance
leukemia cells in the lungs (haematoxylin and eosin staining) ([5]; MV4;11 AML mice, Day 30, vs vehicle): fewer leukemia cells in the lungs
spleen weight ([5]; NSG mice, disseminated MV4;11-mCLP leukemia, once daily IP for 15 days, 15 days after stopping treatment): prevents spleen weight increase

Source: US20180369230A1, “TARGETED SELECTION OF PATIENTS FOR TREATMENT WITH SPECIFIC CORTISTATIN DERIVATIVES” (President and Fellows of Harvard College, priority 2015, published 2018)
